Measurements reported in PubChem BioAssay AID977630 (Broad Institute, 2014).
Results filed as inconclusive are left out. Calls of active or inactive are those of the source.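 How the source made its calls: active means Normal-ribosome green reporter loss at least double humanized-ribosome red reporter loss, with overall culture growth inhibition under a set limit; inconclusive means no clear call, values can overlap the other calls; inactive means the rest.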

Test system: E. coli wild-type GFP growth, mixed culture, 24 h
Assay: growth inhibition of wild-type GFP E. coli, H38-humanized RFP comparator, dose response, H38 mutant RFP vs wild-type GFP, cherry-pick (AID 977630);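 further: wild-type GFP strain mixed equally with humanized-ribosome H38 mutant expressing RFP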
[1] = E. coli mixed culture total OD600 growth, 24 h

SMILES	AC50	AC50 [1]
O=C(c1ccc(N2CCCCC2)c([N+](=O)[O-])c1)N1CCN(c2ccccn2)CC1	> 100 µM (inactive)	> 100 µM
Cc1onc(-c2ccccc2Cl)c1C(=O)OCC(=O)c1ccccc1	–	> 100 µM
C=CCn1c(C)cc(C(=O)CSc2nnc(C3CC3)n2C2CC2)c1C	> 100 µM (inactive)	> 100 µM
CCc1cc(C(=O)N2CCCC(C(=O)c3cccc4ccccc34)C2)n(C)n1 (configuration not stated)	> 100 µM (inactive)	–
Cc1ccccc1-n1c([C@@H]2C[C@H]2c2ccccc2)n[nH]c1=S	> 100 µM (inactive)	–
CSc1nc2nc3c(cc2c(=O)n1-c1ccccc1C)CCCC3	> 100 µM (inactive)	> 100 µM
O=C(Nc1cccnc1)c1ccc([N+](=O)[O-])o1	> 100 µM (inactive)	–
O=C(NCc1ccc2c(c1)OCO2)C1CCCN1S(=O)(=O)c1ccc(Cl)cc1 (configuration not stated)	> 100 µM (inactive)	–
CC(=O)N1CCN(c2nc(-c3cccs3)nc3ccccc23)CC1	> 100 µM (inactive)	–
CC(=O)Nc1ccc(-c2ccnc3c2CC(C)(C(=O)Nc2ccc4c(c2)OCO4)O3)cc1 (configuration not stated)	> 100 µM (inactive)	–
O=C(CCCn1c(=S)[nH]c2ccsc2c1=O)Nc1ccc2c(c1)OCCO2	> 100 µM (inactive)	> 100 µM
COc1ccccc1Cc1c(-c2ccc(F)cc2)nc2ccc(Br)cn12	> 100 µM (inactive)	–
Cc1nonc1C1CCCN1C(=O)c1cc(COc2ccc(F)cc2F)on1 (configuration not stated)	> 100 µM (inactive)	–
O=C1c2ccccc2C(c2nnnn2C2CCCCC2)N1CCc1ccc(O)cc1 (configuration not stated)	> 100 µM (inactive)	> 100 µM
FC(F)(F)c1ccc(Cl)c(-n2c(Cc3cccs3)n[nH]c2=S)c1	> 100 µM (inactive)	–
COc1cc(CC(=O)Nc2nc(C)cs2)cc(OC)c1OC	–	> 100 µM
CCN(CC(=O)Nc1cccc(C#N)c1)CC(=O)Nc1cccc(OC)c1	> 100 µM (inactive)	–
CCN(CC)CCNC(=O)c1cc2cc3ccc(OC)cc3nc2o1	> 100 µM (inactive)	–
CSc1ccc(CN(C)CC(=O)NC(C)c2ccccc2)cc1 (configuration not stated)	–	> 100 µM

SMILES	AC50	AC50 [1]
CCOc1ccc(OCCn2c(=S)[nH]c3c(N)ncnc32)cc1	> 100 µM (inactive)	–
CCOC(=O)C1(CCCc2ccccc2)CCN(C(=O)CCn2cncn2)CC1	> 100 µM (inactive)	–
O=C(O)c1ccc2c(c1)N(Cc1ccccc1)C(=O)c1ccccc1S2	> 100 µM (inactive)	> 100 µM
CCOc1ncccc1C(=O)OCC(=O)NCCCc1ccccc1	> 100 µM (inactive)	–
COc1ccc2[nH]c3c(=O)n(CCCCC(=O)NCCC(C)C)c(=S)[nH]c3c2c1	2.42 µM	> 100 µM
Cc1ccc(-c2cc(-c3ccc(C)cc3)[n+](-c3ccc(C(=O)[O-])cc3)c(-c3ccc(C)cc3)c2)cc1	> 100 µM (inactive)	–
COc1cccc(CC(=O)OC(C)C(=O)NCc2ccc3c(c2)OCO3)c1 (configuration not stated)	> 100 µM (inactive)	–
COc1ccc(OC)c(-c2csc(NC(=O)C3COc4ccccc4O3)n2)c1 (configuration not stated)	> 100 µM (inactive)	–
CN(C)CCCN(C(=O)CCSc1ccccc1)c1nc2cc3c(cc2s1)OCO3	> 100 µM (inactive)	–
CCCCn1c(NS(=O)(=O)c2ccc(C)cc2)c(C(=O)OCC)c2nc3ccccc3nc21	> 100 µM (inactive)	> 100 µM
CC1Cc2ccccc2N1C(=O)CN1C(=O)NC(C)(CCc2ccccc2)C1=O (configuration not stated)	–	> 100 µM
CCOc1ccccc1NC(=O)c1cc(SC)ccc1Cl	> 100 µM (inactive)	–
N#Cc1nc(-c2ccco2)oc1NCc1ccccc1Cl	> 100 µM (inactive)	41.5 µM
O=S1(=O)c2ccc(Br)cc2OCCC2CCCCN21 (configuration not stated)	> 100 µM (inactive)	> 100 µM
CC(=O)N(CCC1(c2ccc(C)cc2)CCOC(C(C)C)C1)Cc1ccco1 (configuration not stated)	> 100 µM (inactive)	–
CCC1(CC)NC(=O)N(CC(=O)N2N=C(c3ccc(Cl)cc3)CC2c2ccco2)C1=O (configuration not stated)	> 100 µM (inactive)	–
Cn1cc(CN2CCCC(C(=O)c3cccs3)C2)c(-c2cccc(Cl)c2)n1 (configuration not stated)	> 100 µM (inactive)	–
S=c1nc(-c2cccc(Br)c2)[nH][nH]1	–	> 100 µM
